In patent publication US11547697B2, “Heterocyclic compounds and uses thereof” (MILLENNIUM PHARMACEUTICALS, INC., priority 2009, dated 2023):
Read-outs that look alike come from different tables or passages of the source.

Assays:
Assay type in all cases: biochemical
p110δ/p85α = p110δ/p85α (Homo sapiens (Human), UniProt O00329); assay: PI 3-Kinase (human) HTRF assay, p110δ/p85α; conditions: read-out: PI3K δ IC50
p110β/p85α = p110β/p85α (Homo sapiens (Human), UniProt P42338); assay: PI 3-Kinase (human) HTRF assay, p110β/p85α; conditions: read-out: PI3K β IC50
Chain of p110β/p85α (P42338 whole entry): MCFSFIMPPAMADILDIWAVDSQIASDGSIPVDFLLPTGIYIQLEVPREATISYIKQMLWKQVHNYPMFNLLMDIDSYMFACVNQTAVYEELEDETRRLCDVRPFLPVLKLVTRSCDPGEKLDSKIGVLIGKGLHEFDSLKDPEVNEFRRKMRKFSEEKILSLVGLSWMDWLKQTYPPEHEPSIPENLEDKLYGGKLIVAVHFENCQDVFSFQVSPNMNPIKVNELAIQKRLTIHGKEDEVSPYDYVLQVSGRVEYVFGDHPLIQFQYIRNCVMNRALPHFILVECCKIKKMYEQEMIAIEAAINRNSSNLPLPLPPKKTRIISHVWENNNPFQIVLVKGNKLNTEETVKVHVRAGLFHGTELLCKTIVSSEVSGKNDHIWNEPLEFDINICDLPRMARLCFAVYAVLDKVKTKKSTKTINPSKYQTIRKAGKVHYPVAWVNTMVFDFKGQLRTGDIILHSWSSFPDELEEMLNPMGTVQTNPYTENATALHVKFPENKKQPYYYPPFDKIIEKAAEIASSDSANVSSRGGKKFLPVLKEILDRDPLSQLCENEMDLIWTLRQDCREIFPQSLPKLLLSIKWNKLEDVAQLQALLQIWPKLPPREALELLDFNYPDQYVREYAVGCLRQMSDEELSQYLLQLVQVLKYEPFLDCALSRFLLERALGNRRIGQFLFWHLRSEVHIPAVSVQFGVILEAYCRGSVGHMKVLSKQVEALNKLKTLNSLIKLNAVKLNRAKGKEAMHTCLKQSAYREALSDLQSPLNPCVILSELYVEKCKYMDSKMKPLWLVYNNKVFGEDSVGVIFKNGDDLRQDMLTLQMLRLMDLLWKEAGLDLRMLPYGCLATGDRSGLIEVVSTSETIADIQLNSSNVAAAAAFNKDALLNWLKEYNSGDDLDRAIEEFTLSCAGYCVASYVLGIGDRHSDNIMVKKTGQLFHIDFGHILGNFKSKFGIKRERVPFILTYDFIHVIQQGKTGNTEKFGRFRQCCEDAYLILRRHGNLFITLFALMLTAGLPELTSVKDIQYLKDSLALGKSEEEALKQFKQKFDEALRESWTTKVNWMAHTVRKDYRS
Chain of p110β/p85α (P27986 whole entry partner): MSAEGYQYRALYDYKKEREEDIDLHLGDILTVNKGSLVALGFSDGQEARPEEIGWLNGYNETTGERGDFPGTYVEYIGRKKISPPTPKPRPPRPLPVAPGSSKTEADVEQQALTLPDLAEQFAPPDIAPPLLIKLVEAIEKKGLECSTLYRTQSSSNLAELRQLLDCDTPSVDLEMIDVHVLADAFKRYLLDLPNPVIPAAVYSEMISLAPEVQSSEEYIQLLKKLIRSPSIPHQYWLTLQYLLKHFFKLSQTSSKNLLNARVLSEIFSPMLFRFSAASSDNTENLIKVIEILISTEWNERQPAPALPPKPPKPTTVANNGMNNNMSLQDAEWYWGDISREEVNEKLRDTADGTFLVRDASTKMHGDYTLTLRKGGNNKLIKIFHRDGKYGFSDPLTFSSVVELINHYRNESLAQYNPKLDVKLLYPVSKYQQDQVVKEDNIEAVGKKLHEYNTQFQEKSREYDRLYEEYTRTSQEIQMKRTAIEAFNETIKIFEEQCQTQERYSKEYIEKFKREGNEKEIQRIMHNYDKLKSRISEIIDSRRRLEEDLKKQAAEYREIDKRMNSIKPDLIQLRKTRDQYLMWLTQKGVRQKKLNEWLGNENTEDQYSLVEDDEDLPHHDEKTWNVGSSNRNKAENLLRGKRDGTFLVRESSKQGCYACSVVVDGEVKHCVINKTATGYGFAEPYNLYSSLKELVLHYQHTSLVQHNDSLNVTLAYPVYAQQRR

p110α/p85α = p110α/p85α (Homo sapiens (Human), UniProt P42336); assay: PI 3-Kinase (human) HTRF assay, p110α/p85α; conditions: read-out: PI3K α IC50
Chain of p110α/p85α (P42336 whole entry): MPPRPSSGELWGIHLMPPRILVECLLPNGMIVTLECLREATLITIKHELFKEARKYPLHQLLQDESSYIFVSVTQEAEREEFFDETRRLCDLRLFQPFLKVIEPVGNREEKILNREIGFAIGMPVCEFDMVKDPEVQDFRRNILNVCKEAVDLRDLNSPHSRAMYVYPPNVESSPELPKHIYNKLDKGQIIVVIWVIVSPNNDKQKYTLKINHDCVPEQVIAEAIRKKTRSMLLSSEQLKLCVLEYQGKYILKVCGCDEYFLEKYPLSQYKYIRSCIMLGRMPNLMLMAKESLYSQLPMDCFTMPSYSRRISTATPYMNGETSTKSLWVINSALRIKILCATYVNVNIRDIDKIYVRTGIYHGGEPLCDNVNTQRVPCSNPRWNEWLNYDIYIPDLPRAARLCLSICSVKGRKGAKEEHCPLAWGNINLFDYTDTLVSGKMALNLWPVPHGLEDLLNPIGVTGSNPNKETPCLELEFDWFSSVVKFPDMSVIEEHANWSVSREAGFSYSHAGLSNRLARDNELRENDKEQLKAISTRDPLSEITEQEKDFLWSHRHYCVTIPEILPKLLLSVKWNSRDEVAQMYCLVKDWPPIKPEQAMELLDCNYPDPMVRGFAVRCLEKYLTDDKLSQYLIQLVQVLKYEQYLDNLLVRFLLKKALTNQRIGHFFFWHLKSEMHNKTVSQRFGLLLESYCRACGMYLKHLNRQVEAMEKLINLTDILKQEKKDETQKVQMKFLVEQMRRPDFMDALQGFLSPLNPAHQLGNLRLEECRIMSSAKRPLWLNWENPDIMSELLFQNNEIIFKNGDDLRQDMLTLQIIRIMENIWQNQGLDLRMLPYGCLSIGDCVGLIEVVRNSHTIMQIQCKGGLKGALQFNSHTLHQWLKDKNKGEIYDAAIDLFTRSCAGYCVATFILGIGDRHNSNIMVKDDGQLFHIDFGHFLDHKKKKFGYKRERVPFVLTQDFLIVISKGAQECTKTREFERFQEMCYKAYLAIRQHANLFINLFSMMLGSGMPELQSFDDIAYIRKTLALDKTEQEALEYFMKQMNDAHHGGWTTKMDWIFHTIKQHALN
Chain of p110α/p85α (P27986 whole entry partner): as the sequence (P27986 whole entry partner) above

p110γ = p110γ (Homo sapiens (Human), UniProt P48736); assay: PI 3-Kinase (human) HTRF assay, p110γ; conditions: read-out: PI3K γ IC50
Chain of p110γ (P48736 whole entry): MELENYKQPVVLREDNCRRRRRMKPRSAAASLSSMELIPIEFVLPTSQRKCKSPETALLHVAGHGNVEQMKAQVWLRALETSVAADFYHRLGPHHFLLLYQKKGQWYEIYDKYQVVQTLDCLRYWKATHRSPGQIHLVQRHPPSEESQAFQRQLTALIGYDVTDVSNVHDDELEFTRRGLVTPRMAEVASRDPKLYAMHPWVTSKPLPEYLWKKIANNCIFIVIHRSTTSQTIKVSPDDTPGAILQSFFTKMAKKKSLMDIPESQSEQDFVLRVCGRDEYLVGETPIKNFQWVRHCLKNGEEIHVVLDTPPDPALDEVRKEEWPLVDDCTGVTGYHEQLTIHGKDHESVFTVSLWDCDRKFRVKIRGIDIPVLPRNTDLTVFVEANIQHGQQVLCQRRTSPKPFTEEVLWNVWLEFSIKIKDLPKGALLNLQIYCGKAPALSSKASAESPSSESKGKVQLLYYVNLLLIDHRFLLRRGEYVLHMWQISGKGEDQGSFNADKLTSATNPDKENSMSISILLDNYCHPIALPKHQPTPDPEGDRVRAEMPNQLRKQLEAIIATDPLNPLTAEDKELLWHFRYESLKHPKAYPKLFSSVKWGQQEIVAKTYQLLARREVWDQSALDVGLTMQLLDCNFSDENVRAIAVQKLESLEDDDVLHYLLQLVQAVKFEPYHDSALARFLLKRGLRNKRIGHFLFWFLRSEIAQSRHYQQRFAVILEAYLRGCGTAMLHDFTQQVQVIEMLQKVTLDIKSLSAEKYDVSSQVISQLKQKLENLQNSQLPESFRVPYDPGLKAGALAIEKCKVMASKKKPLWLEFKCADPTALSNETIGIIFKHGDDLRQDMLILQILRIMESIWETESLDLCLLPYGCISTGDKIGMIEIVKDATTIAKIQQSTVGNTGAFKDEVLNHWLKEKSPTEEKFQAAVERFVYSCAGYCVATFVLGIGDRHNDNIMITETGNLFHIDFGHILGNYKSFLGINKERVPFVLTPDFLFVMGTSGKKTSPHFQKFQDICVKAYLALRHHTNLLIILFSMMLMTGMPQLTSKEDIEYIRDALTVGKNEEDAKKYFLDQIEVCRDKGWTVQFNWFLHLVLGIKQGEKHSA

Chain of p110δ/p85α (O00329 whole entry): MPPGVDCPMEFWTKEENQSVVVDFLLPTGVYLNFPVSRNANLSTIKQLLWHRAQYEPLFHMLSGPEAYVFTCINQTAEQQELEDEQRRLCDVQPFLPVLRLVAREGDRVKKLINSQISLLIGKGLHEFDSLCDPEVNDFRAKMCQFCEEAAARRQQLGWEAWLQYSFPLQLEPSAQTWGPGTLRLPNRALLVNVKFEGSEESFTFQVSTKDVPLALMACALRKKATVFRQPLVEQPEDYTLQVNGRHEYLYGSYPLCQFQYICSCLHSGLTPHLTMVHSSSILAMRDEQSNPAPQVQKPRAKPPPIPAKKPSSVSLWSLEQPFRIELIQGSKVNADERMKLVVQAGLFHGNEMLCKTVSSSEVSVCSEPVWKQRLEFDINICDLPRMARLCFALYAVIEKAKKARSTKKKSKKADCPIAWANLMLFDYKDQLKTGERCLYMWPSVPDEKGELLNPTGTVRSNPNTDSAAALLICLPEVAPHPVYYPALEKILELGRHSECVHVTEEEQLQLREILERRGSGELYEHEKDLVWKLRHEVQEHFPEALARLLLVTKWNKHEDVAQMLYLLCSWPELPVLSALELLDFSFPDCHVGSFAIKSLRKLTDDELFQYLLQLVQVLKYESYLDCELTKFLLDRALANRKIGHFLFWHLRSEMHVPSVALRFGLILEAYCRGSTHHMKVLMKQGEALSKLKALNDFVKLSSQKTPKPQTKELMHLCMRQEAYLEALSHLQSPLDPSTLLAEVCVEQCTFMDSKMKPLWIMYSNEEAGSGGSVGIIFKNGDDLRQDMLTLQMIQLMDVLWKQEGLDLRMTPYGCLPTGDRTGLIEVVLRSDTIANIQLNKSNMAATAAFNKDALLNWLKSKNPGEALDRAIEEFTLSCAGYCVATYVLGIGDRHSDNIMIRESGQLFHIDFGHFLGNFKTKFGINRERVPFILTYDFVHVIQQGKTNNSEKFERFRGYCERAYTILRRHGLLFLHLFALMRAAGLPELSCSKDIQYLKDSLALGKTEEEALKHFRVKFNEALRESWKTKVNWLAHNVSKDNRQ
Chain of p110δ/p85α (P27986 whole entry partner): as the sequence (P27986 whole entry partner) above

Q: With `Nc1nc2cc(-c3ccc4ncnc(NC5CCN(C(=O)C6CC6)CC5)c4c3)ccc2o1` [compound 89] as the molecule, how does the IC50 (p110δ/p85α) read?
A: Its IC50 is under 100 nM.

Q: And the IC50 (p110β/p85α)?
A: Its IC50 is under 10000 nM.

Q: What about the IC50 (p110α/p85α) of the same molecule?
A: The IC50 was under 100 nM.

Q: What about the IC50 (p110γ) of the same molecule?
A: Its IC50 is under 100 nM.

Q: For `Cn1cc(-c2cnc3ccc(-c4ccc5oc(N)nc5c4)cc3n2)cn1` [compound 94], which IC50 (p110δ/p85α) is on record?
A: The IC50 was under 10000 nM.

Q: And the IC50 (p110β/p85α)?
A: Its IC50 is under 1000 nM.

Q: What about the IC50 (p110α/p85α) of the same molecule?
A: Its IC50 is under 100 nM.

Q: And the IC50 (p110γ)?
A: The IC50 was under 100 nM.

Q: Which results are given for `CS(=O)(=O)N1CCC(Nc2cnc3ccc(-c4ccc5oc(N)nc5c4)cc3n2)CC1` [compound 95]?
A: IC50 (p110δ/p85α): < 100 nM; IC50 (p110β/p85α): < 10000 nM; IC50 (p110α/p85α): < 100 nM; IC50 (p110γ): < 100 nM

Q: Which results are given for `CC(C)(C#N)c1ccc(Nc2ncnc3ccc(-c4ccc5oc(N)nc5c4)cc23)cc1` [compound 102]?
A: IC50 (p110δ/p85α): < 1000 nM; IC50 (p110β/p85α): < 1000 nM; IC50 (p110α/p85α): < 100 nM; IC50 (p110γ): < 100 nM

Q: With `Nc1nc2cc(-c3ccc4ncc(N[C@H]5CC[C@H](O)CC5)nc4c3)ccc2o1` [compound 128] as the molecule, how does the IC50 (p110δ/p85α) read?
A: Its IC50 is under 100 nM.

Q: And the IC50 (p110β/p85α)?
A: Its IC50 is under 10000 nM.

Q: And the IC50 (p110α/p85α)?
A: Its IC50 is under 100 nM.

Q: What about the IC50 (p110γ) of the same molecule?
A: The IC50 was under 100 nM.

Q: What does the source list for `CC1CN(c2cnc3ccc(-c4ccc5oc(N)nc5c4)cc3n2)CC(C)N1` (centres unmarked) [compound 131]?
A: IC50 (p110δ/p85α): < 1000 nM; IC50 (p110β/p85α): < 1000 nM; IC50 (p110α/p85α): < 1000 nM; IC50 (p110γ): < 1000 nM

Q: Which results are given for `CN1CC(C(=O)N2CCC(Nc3ncnc4ccc(-c5ccc6oc(N)nc6c5)cc34)CC2)C1` [compound 138]?
A: IC50 (p110δ/p85α): < 100 nM; IC50 (p110β/p85α): < 1000 nM; IC50 (p110α/p85α): < 100 nM; IC50 (p110γ): < 1000 nM

Q: What does the source list for `CC(=O)NC1CCN(C(=O)c2cnc3ccc(-c4ccc5oc(N)nc5c4)cn23)CC1` [compound 147]?
A: IC50 (p110δ/p85α): < 10000 nM; IC50 (p110β/p85α): < 10000 nM; IC50 (p110α/p85α): < 1000 nM; IC50 (p110γ): < 10000 nM

Q: Which results are given for `CC1CN(c2cnc3ccc(-c4ccc5oc(N)nc5c4)cc3n2)CCN1` (centres unmarked) [compound 149]?
A: IC50 (p110δ/p85α): < 10000 nM; IC50 (p110β/p85α): < 100 nM; IC50 (p110α/p85α): < 100 nM; IC50 (p110γ): < 1000 nM

Q: With `CN1CCC(N(C)c2cnc3ccc(-c4ccc5oc(N)nc5c4)cc3n2)CC1` [compound 151] as the molecule, how does the IC50 (p110δ/p85α) read?
A: The IC50 was under 1000 nM.

Q: What about the IC50 (p110β/p85α) of the same molecule?
A: Its IC50 is under 10000 nM.

Q: And the IC50 (p110α/p85α)?
A: Its IC50 is under 100 nM.

Q: What about the IC50 (p110γ) of the same molecule?
A: Its IC50 is under 10000 nM.

Q: For `CN1CCC(N(C)c2ncnc3ccc(-c4ccc5oc(N)nc5c4)cc23)CC1` [compound 155], which IC50 (p110δ/p85α) is on record?
A: The IC50 was under 1000 nM.

Q: What about the IC50 (p110β/p85α) of the same molecule?
A: The IC50 was under 100 nM.

Q: And the IC50 (p110α/p85α)?
A: Its IC50 is under 100 nM.

Q: What about the IC50 (p110γ) of the same molecule?
A: The IC50 was under 100 nM.

Q: Which results are given for `Nc1nc2cc(-c3ccc4ncc(C(=O)N5CCN(CC6CC6)CC5)n4c3)ccc2o1` [compound 161]?
A: IC50 (p110δ/p85α): < 10000 nM; IC50 (p110β/p85α): < 10000 nM; IC50 (p110α/p85α): < 1000 nM; IC50 (p110γ): < 10000 nM

Q: For `Nc1nc2cc(-c3ccc4ncc(C(=O)N5CCC(N6CCOCC6)CC5)n4c3)ccc2o1` [compound 163], which IC50 (p110δ/p85α) is on record?
A: The IC50 was under 10000 nM.

Q: And the IC50 (p110β/p85α)?
A: Its IC50 is under 10000 nM.

Q: What about the IC50 (p110α/p85α) of the same molecule?
A: Its IC50 is under 1000 nM.

Q: And the IC50 (p110γ)?
A: The IC50 was under 10000 nM.

Q: Which results are given for `CN(C)C1CCN(c2cnc3ccc(-c4ccc5oc(N)nc5c4)cc3n2)CC1` [compound 172]?
A: IC50 (p110δ/p85α): < 100 nM; IC50 (p110β/p85α): < 100 nM; IC50 (p110α/p85α): < 100 nM; IC50 (p110γ): < 1000 nM

Q: Which results are given for `C[C@H]1CN(c2cnc3ccc(-c4ccc5oc(N)nc5c4)cc3n2)CCN1` [compound 178]?
A: IC50 (p110δ/p85α): < 1000 nM; IC50 (p110β/p85α): < 100 nM; IC50 (p110α/p85α): < 100 nM; IC50 (p110γ): < 1000 nM

Q: How did the IC50 (p110δ/p85α) turn out when `CC(C)(C)N1CCN(C(=O)c2cnc3ccc(-c4ccc5oc(N)nc5c4)cn23)CC1` [compound 191] was run?
A: Its IC50 is under 10000 nM.

Q: And the IC50 (p110β/p85α)?
A: The IC50 was under 10000 nM.

Q: And the IC50 (p110α/p85α)?
A: The IC50 was under 100 nM.

Q: What about the IC50 (p110γ) of the same molecule?
A: The IC50 was under 10000 nM.

Q: Which IC50 (p110δ/p85α) does the source give for `NCC(=O)N1CCN(c2cnc3ccc(-c4ccc5oc(N)nc5c4)cc3n2)CC1` [compound 192] here?
A: The IC50 was under 1000 nM.

Q: What about the IC50 (p110β/p85α) of the same molecule?
A: Its IC50 is under 1000 nM.

Q: What about the IC50 (p110α/p85α) of the same molecule?
A: The IC50 was under 100 nM.

Q: And the IC50 (p110γ)?
A: Its IC50 is under 1000 nM.

Q: Which results are given for `COC(=O)N1CCN(c2cnc3ccc(-c4ccc5oc(N)nc5c4)cc3n2)CC1` [compound 193]?
A: IC50 (p110δ/p85α): < 10000 nM; IC50 (p110β/p85α): < 1000 nM; IC50 (p110α/p85α): < 100 nM; IC50 (p110γ): < 100 nM

Q: Which results are given for `Nc1nc2cc(-c3ccc4ncc(C(=O)N5CCC5)n4c3)ccc2o1` [compound 197]?
A: IC50 (p110δ/p85α; in vitro): < 10000 nM; IC50 (p110β/p85α; in vitro): < 10000 nM; IC50 (p110α/p85α; in vitro): < 100 nM; IC50 (p110γ; in vitro): < 100 nM

Q: How did the IC50 (p110δ/p85α; in vitro) turn out when `CS(=O)(=O)CCN1CCN(C(=O)c2cnc3ccc(-c4ccc5oc(N)nc5c4)cn23)CC1` [compound 198] was run?
A: The IC50 was under 10000 nM.

Q: And the IC50 (p110β/p85α; in vitro)?
A: The IC50 was under 10000 nM.

Q: What about the IC50 (p110α/p85α; in vitro) of the same molecule?
A: The IC50 was under 100 nM.

Q: And the IC50 (p110γ; in vitro)?
A: The IC50 was under 1000 nM.
